{"source": "paper PMC6155662", "about": "“Trypanocidal Activity of Quinoxaline 1,4 Di-N-oxide Derivatives as Trypanothione Reductase Inhibitors” (Molecules : A Journal of Synthetic Chemistry and Natural …, 2017)", "key": {"[1]": {"system": "T. cruzi bloodstream trypomastigotes INC-5 strain", "assay": "microbe, parasite or virus in culture", "assay_type": "cell-based", "conditions": "for CC50: bloodstream trypomastigotes, 24 h at 4 °C (called IC50 in abstract), read-out: LC50 INC-5 Strain", "method": "(§1) In this study, two strains of T. cruzi isolated in Mexico were used. T. cruzi NINOA strain (MHOM/MX/1994/NINOA) was obtained from a patient with acute Chagas disease and T. cruzi INC-5 (MHOM/MX/1994/INC5) was isolated from a patient in the chronic phase of the disease. Epimastigotes were cultured in vitro in liver infusion-tryptose (LIT) medium supplemented with 10% heat inactivated fetal bovine serum (FBS) (Gibco) and 100 U/mL penicillin-streptomycin (In vitro S.A.), and incubated at 27 °C. CD1 mice, aged 6–8 weeks, were infected with T. cruzi to obtain bloodstream trypomastigote samples. Animal experiments were performed according to Norma Oficial Mexicana (NOM-062-Z00-1999) published on 22 August, 2009.\n(§2) CD1 female mice 6–8 weeks old were infected with T. cruzi bloodstream trypomastigotes of the INC-5 and NINOA strains. The course of infection continued for 4–6 weeks. At the peak of parasitemia blood was obtained by cardiac puncture using sodium heparin as an anticoagulant. The blood was adjusted to 1 × 10^6 bloodstream trypomastigotes/mL.\n(§3) In each well of the 96-well plate, 195 μL of infected blood and 5 μL of quinoxaline 1,4-di-N-oxide derivatives or reference drug dilutions were seeded, with each well reaching a final volume of 200 µL. Each assay was performed in triplicate. Initially, all compounds were tested at 50 μg/mL. […] As a negative control of lysis, wells with untreated blood trypomastigotes were used, and as a positive control, wells with the reference drugs were used. The microplates were incubated at 4 °C for 24 h. Bloodstream trypomastigotes were quantified by the method of Brener-Pizzi, 5 μL of blood were placed on a slide and covered with a coverslip 13 × 13 mm. The mobile protozoa were counted in 15 fields at 40× magnification using an optical microscope. The percentage lysis was determined by comparing the remaining trypomastigotes against the negative control. LC50 was determined with the Probit statistical tool. The results were later converted to micromolar units."}, "[2]": {"system": "T. cruzi bloodstream trypomastigotes NINOA strain", "assay": "microbe, parasite or virus in culture", "assay_type": "cell-based", "conditions": "Trypanosoma cruzi", "method": "as §1, §2, §3"}}, "note": "Read-outs that look alike come from different tables or passages of the source."}
{"smiles": "CC(C)OC(=O)c1ccc2c(c1)[n+]([O-])c(C(=O)C(C)C)c(C(F)(F)F)[n+]2[O-]", "note": "[Compound T-085, Isopropyl 2-isobutyryl-3-trifluoromethylquinoxaline-7-carboxylate 1,4-di-N-oxide]", "values": [{"measurement": "CC50", "setting": "[1]; Trypanosoma cruzi, 24 h", "result": 73, "unit": "µM"}, {"measurement": "killing at 50 µg/mL", "setting": "[1]; Trypanosoma cruzi, 50 μg/mL, 24 h at 4 °C, infected mouse blood, read-out: % Lysis at 50 μg/mL INC-5 Strain", "result": "76.2 ± 1.2", "unit": "%"}, {"measurement": "CC50", "setting": "[1]", "result": "73.1 ± 12.4", "unit": "µM"}, {"measurement": "LC50", "setting": "[2]; 24 h", "result": "59.9 ± 7.9", "unit": "µM"}, {"measurement": "killing at 50 µg/mL", "setting": "[2]; 50 μg/mL, 24 h at 4 °C, infected mouse blood, read-out: % Lysis at 50 μg/mL NINOA Strain", "result": "74.2 ± 6.4", "unit": "%"}]}
